These results are taken from patent US9801371B2, “Self-assembling polymer particle release system” (priority 2010, dated 2017).

The structures appear in SMILES notation.

Experiment in one data set: not given
Conditions: Table 26, USDA Pesticide Properties Database; cited from earlier work.
As to `CCOP(=S)(OCC)Oc1nc(Cl)c(Cl)cc1Cl` [Chlorpyrifos], the KOC is on record as 6,000 mg/g.
Regarding `CCOP(=S)(OCC)Oc1cc(C)nc(C(C)C)n1` [Diazinon], the KOC was 1000 mg/g.
Turning to `C[n+]1ccc(-c2cc[n+](C)cc2)cc1` [Paraquat], the KOC was 1,000,000 mg/g.
`CNC(=O)N(C)c1nnc(C(C)(C)C)s1` [Tebuthiuron]: the KOC was 80 mg/g.
Consider `CCOP(=S)(OCC)SCSC(C)(C)C` [Terbufos], for which the KOC was 500 mg/g.

The data set is the same for the next values; noted with them: Tables 21-25; cited from earlier work.
For `O=C(O)Cc1cccc2ccccc12` [1-Napthylacetic Acid], the KOC is on record as 385.
For the compound `CCNc1nc(NC(C)C)nc(SC)n1` [Ametryn], the KOC is on record as 316.
`Clc1nc(Cl)nc(Nc2ccccc2Cl)n1` [Anilazine]: the KOC was 2000.
For `CCNc1nc(Cl)nc(NC(C)C)n1` [Atrazine], the KOC was 100.
With `COP(=S)(OC)SCn1nnc2ccccc2c1=O` [Azinphosmethyl], the KOC is 1000.
Regarding `CCOP(=S)(OCC)OC(Cl)C(Cl)(Cl)Cl` (stereo not shown) [Chlorethoxyfos], the KOC was 6100.
On to `CCOC(=O)c1ccccc1S(=O)(=O)NC(=O)Nc1nc(Cl)cc(OC)n1` [Chlorimuron-Ethyl], for which the KOC was 106.
Take `COc1nc(C)nc(NC(=O)NS(=O)(=O)c2ccccc2Cl)n1` [Chlorsulfuron]: the KOC is listed as 36.3.
With `CCNc1nc(Cl)nc(NC(C)(C)C#N)n1` [Cyanazine], the KOC was 190.
Turning to `COP(=O)(OC)O/C(C)=C/C(=O)N(C)C` [Dicrotophos], the KOC was 75.
As to `CNC(=O)CSP(=S)(OC)OC` [Dimethonate], the KOC is listed as 30.
`CCOP(=S)(OCC)SCCSCC` [Disulfuton]: the KOC is listed as 13454.
Regarding `CN(C)C(=O)Nc1ccc(Cl)c(Cl)c1` [Diuron], the KOC was 1067.
As for `COP(=S)(OC)Oc1ccc(SC)c(C)c1` [Fenthion], the KOC is 1500.
For the compound `Cc1ccn2nc(S(=O)(=O)Nc3c(F)cccc3F)nc2n1` [Flumetsulam], the KOC is reported as 28.
As for `CN(C)C(=O)Nc1cccc(C(F)(F)F)c1` [Fluometuron], the KOC was 67.4.
`CS(=O)(=O)NC(=O)c1cc(Oc2ccc(C(F)(F)F)cc2Cl)ccc1[N+](=O)[O-]` [Fomesafen]: the KOC is given as 50.
With `CN(C)c1nc(=O)n(C2CCCCC2)c(=O)n1C` [Hezazinone], the KOC is given as 54.
With `CC(C)C1(C)N=C(c2nc3ccccc3cc2C(=O)O)NC1=O` (stereo not shown) [Imazaquin], the KOC is 18.
`CCc1cnc(C2=NC(C)(C(C)C)C(=O)N2)c(C(=O)O)c1` (stereo not shown) [Imazethapyr]: the KOC is 52.
In the case of `COP(=S)(OC)Oc1cc(Cl)c(I)cc1Cl` [Iodufenphos], the KOC was 50000.
`CCOP(=S)(OCC)Oc1nc(Cl)n(C(C)C)n1` [Isazofos]: the KOC is given as 155.
As to `CC(C)c1ccc(NC(=O)N(C)C)cc1` [Isoproturon], the KOC is reported as 122.
Consider `O=C(NC(=O)c1c(F)cccc1F)Nc1cc(Cl)c(OC(F)(F)C(F)C(F)(F)F)cc1Cl` (stereo not shown) [Lufenuron], for which the KOC is on record as 41182.
Take `CN(C)C(=O)Nc1ccc(Cl)cc1` [Monuron]: the KOC is on record as 150.
In the case of `COc1cc(OC)nc(NC(=O)NS(=O)(=O)c2ncccc2C(=O)N(C)C)n1` [Nicosulfuron], the KOC was 21.
`CCOP(=S)(OCC)Oc1ccc([N+](=O)[O-])cc1` [Parathion]: the KOC is reported as 7660.
`CCOP(=S)(OCC)SCSCC` [Phorate]: the KOC is reported as 1660.
`Nc1c(Cl)c(Cl)nc(C(=O)O)c1Cl` [Picloram]: the KOC is reported as 35.
For `CCCOP(=S)(OCCC)SCC(=O)N1CCCCC1C` (stereo not shown) [Piperophos], the KOC is on record as 5202.
With `O=C(Nc1nc(OC(F)F)cc(OC(F)F)n1)NS(=O)(=O)c1ccccc1C(=O)O` [Primisulfuron], the KOC is given as 50.
As for `CCCSP(=O)(OCC)Oc1ccc(Br)cc1Cl` (stereo not shown) [Profenofos], the KOC is 2016.
For `COc1nc(NC(C)C)nc(NC(C)C)n1` [Prometon], the KOC was 150.
On to `CSc1nc(NC(C)C)nc(NC(C)C)n1` [Prometryn], for which the KOC is 400.
In the case of `CC(C)Nc1nc(Cl)nc(NC(C)C)n1` [Propazine], the KOC is reported as 154.
Turning to `CCCC1COC(Cn2cncn2)(c2ccc(Cl)cc2Cl)O1` (stereo not shown) [Propiconazole], the KOC was 1086.
For the compound `O=C(O)c1c(Cl)ccc2cc(Cl)cnc12` [Quinclorac], the KOC is given as 50.
Consider `CCS(=O)(=O)c1cccnc1S(=O)(=O)NC(=O)Nc1nc(OC)cc(OC)n1` [Rimsulfuron], for which the KOC is listed as 47.
With `CC1CCCCC1NC(=O)Nc1ccccc1` (stereo not shown) [Siduron], the KOC is listed as 420.
`CCNc1nc(Cl)nc(NCC)n1` [Simazine]: the KOC is 130.
On to `Cc1nn(-c2cc(NS(C)(=O)=O)c(Cl)cc2Cl)c(=O)n1C(F)F` [Sulfentrazone], for which the KOC was 43.
In the case of `COC(=O)c1ccccc1S(=O)(=O)NC(=O)Nc1nc(C)cc(C)n1` [Sulfometuron-Methyl], the KOC is 85.
With `CCNc1nc(NC(C)(C)C)nc(SC)n1` [Terbutryn], the KOC is listed as 2000.
For `O=C(Nc1ccccc1)Nc1cnns1` [Thidiazuron], the KOC is recorded as 742.
As for `CC(C)(C)C(O)C(Oc1ccc(Cl)cc1)n1cncn1` (stereo not shown) [Triadimenol], the KOC is 273.
`COC(=O)c1ccccc1S(=O)(=O)NC(=O)N(C)c1nc(C)nc(OC)n1` [Tribenuron-Methyl]: the KOC is on record as 31.
For `Cc1cccc2sc3nncn3c12` [Tricyclazole], the KOC is reported as 169.
Regarding `COC(=O)c1cccc(C)c1S(=O)(=O)NC(=O)Nc1nc(OCC(F)(F)F)nc(N(C)C)n1` [Triflusulfuron-Methyl], the KOC is listed as 40.

Another data set in a line: Filter paper test: ten 10-ml water washings, UV analysis of AI washed through. Type of data set: physicochemical. Conditions: R line of the washing table, filter paper. The text has this:
All of the polymers in this set of experiments were combined with the AI at a 70% AI by weight to 30% polymer by weight concentrations. […] The filter paper samples were applied to a slightly wet Buchner funnel to set the paper evenly and then ten 10-ml aliquots of de-ionized (DI) water were suctioned through the filter paper. Ultraviolet light (UV) analysis for each of the 10-ml fractions was used to determine the absorption of the AI (264 nm) washed through the filter paper and recorded as absorption versus each individual 10-ml wash.
The control for these systems was evaluated by placing methylene chloride solutions of the AI alone or the polymer alone onto the filter paper, drying overnight, and washing with ten 10-ml aliquots of DI water.
The AI was dry ground (mortar and pestle) with urea-formaldehyde flower foam as the cage material [commercial product (Foliage Fresh)] where the ratio of AI to flower foam was 70%/30% by weight. This mixture then was tumbled-coated with an organic solvent solution of a hydrophobic polymer (paraffin wax/hexane; polystyrene/toluene; silicone oil/toluene) in a round bottom flask. […] Small amounts (0.07 g) of the powder were placed on the filter paper and subsequently washed with ten 10-ml aliquots of DI water and analyzed in a similar manner as previously described.
Liquid samples of the AI-polymer combinations and AI control samples were applied to filter paper (Whatman #2) and dried for 24 hours at room temperature. The filter paper containing the AI-polymer combination or the AI control samples were placed in a Buchner funnel under water aspiration vacuum conditions, while ten 10-ml aliquots of water were applied to the top of the filter paper containing the AI-polymer or AI control material, which was then sucked through the filter paper and collected in the receiving flask that holds the funnel-vacuum attachment.
After each 10-ml aliquot of water was suctioned through the filter paper containing the sample, the suctioned solution then was removed and analyzed with a UV spectrometer for any AI that went through the water washing process. The ten 10-ml sequential washings were a simulation of how an AI applied to soil would remain on the soil and migrate through the soil under a rain environmental exposure condition.
Dry 100% solid samples were placed on the filter paper directly and subsequently washed with ten 10-ml aliquots in a similar manner as the liquid samples that were dried after placement on the filter paper.
Various concentrations of the AI's were dissolved in water or water and a co-solvent and analyzed at 254 nm or other UV/visible regions of the spectrum in order to establish a standard calibration curve of absorbance versus AI concentration.
As to `CC(C)N.O=C(O)COc1ccc(Cl)cc1Cl` [2,4-D Amine Salt (Control)], the “R Values” is recorded as 2.

The data set is the same for the next values; noted with them: washing 1; sample applied to filter paper and dried.
In the case of `CC(C)N.O=C(O)COc1ccc(Cl)cc1Cl` [2,4-D Amine Salt (Control)], the “% released” value was determined as 94%.

Still in this data set, the particulars now being: washing 2; sample applied to filter paper and dried.
Regarding `CC(C)N.O=C(O)COc1ccc(Cl)cc1Cl` [2,4-D Amine Salt (Control)], the “% released” value was 6%.

Staying with this data set, now noted: washing 4; sample applied to filter paper and dried.
Consider `CC(C)N.O=C(O)COc1ccc(Cl)cc1Cl` [2,4-D Amine Salt (Control)], for which the “% released” value amounted to 0%.

The data set is the same for the next values; noted with them: washing 5; sample applied to filter paper and dried.
Turning to `CC(C)N.O=C(O)COc1ccc(Cl)cc1Cl` [2,4-D Amine Salt (Control)], the “% released” value is 0%.

Staying with this data set, now noted: washing 6; sample applied to filter paper and dried.
`CC(C)N.O=C(O)COc1ccc(Cl)cc1Cl` [2,4-D Amine Salt (Control)]: the “% released” value is 0%.

Still in this data set, the particulars now being: washing 7; sample applied to filter paper and dried.
Take `CC(C)N.O=C(O)COc1ccc(Cl)cc1Cl` [2,4-D Amine Salt (Control)]: the “% released” value was found to be 0%.

The data set is the same for the next values; noted with them: washing 8; sample applied to filter paper and dried.
With `CC(C)N.O=C(O)COc1ccc(Cl)cc1Cl` [2,4-D Amine Salt (Control)], the “% released” value is listed as 0%.

The same data set, now with this note: washing 9; sample applied to filter paper and dried.
With `CC(C)N.O=C(O)COc1ccc(Cl)cc1Cl` [2,4-D Amine Salt (Control)], the “% released” value came out at 0%.

The same data set, now with this note: washing 10; * = not all of the sample was released after 10 washings.
As to `CC(C)N.O=C(O)COc1ccc(Cl)cc1Cl` [2,4-D Amine Salt (Control)], the “% released” value was found to be 0%.

Still in this data set, the particulars now being: washing 33; sample applied to filter paper and dried.
For the compound `CC(C)N.O=C(O)COc1ccc(Cl)cc1Cl` [2,4-D Amine Salt (Control)], the “% released” value is listed as 0%.
